Data as given in publication PMC5796017, “Enantiomeric Effect of D-Amino Acid Substitution on the Mechanism of Action of α-Helical Membrane-Active Peptides” (International Journal of Molecular Sciences, 2017).
Values after ≈ are worked out from the molar mass of the structure shown.

Assays:
[1] = RP-HPLC retention time as relative hydrophobicity; type: physicochemical; conditions: 25 °C, used by the paper as measure of relative hydrophobicity
Method: The RP-HPLC retention time has been widely used to represent the relative hydrophobicity of peptides in many studies.The relative hydrophobicity of the peptides was determined by the RP-HPLC retention times at 25 °C. The change in hydrophobicity of the peptides caused by D-amino acid substitutions was mainly due to the disruption of the helical structure.

[2] = Circular dichroism (CD) secondary structure; type: physicochemical; conditions: for [θ]222, benign / [θ]222, 50% TFE: CD, 75 μM peptide, 25 °C; for [θ]222, benign: KP buffer (100 mM KCl, 50 mM KH2PO4/K2HPO4, pH 7.4); for [θ]222, 50% TFE / α-Helix (%), 50% TFE (relative helicity): KP buffer with 50% TFE; for α-Helix (%), 50% TFE (relative helicity) / α-Helix (%), benign: relative to molar ellipticity of V13K in 50% TFE; for α-Helix (%), benign: KP buffer
Source text: The influence of the amino acid substitutions on the peptide secondary structure were investigated using circular dichroism (CD) spectroscopy under benign conditions (KP buffer) and under conditions designed to mimic the hydrophobic environment of the membrane (KP buffer with 50% TFE). D-amino acid substitutions reduced the helicity of the peptide analogs relative to that of peptide V13K, in both KP buffer and KP buffer with 50% TFE. […] As shown in Table 2 and Figure S1, the values of the relative helicity of peptides with polar face substitutions are in the order of K14D (76.99%) > S11D/K14D (51.33%) > S11D/K14D/T15D (38.67%). Similarly, the relative helicity of the peptides with substitutions on the non-polar face follows the same trend: A12D (70.83%) > F9D/A12D (38.26%) > F9D/A12D/V16D (36.41%). Since the values of the relative helicity of the peptides with D-amino acid substitutions on the non-polar face were less than those peptide analogs with the same number of D-amino acid substitutions on the polar face, it is clear that the amino acid residues on the non-polar face may be more important for stabilizing the α-helical structure than residues on the polar face.
The secondary structures of the peptides were examined using a Jasco J-810 CD spectrometer (Jasco, Easton, MD, USA) at 25 °C as described previously. […] The mean residue molar ellipticities were calculated according to the equation [θ] = θ/10lCMn, in which, θ represents the ellipticity in millidegrees, l is the optical path length of the cuvette in centimeters, CM is the peptide concentration in mol/L, and n is the number of residues in the peptide. The mean residue molar ellipticities at 222 nm, [θ]222 (degree·cm^2·dmol^−1), were used to calculate the relative helical content of the peptides.

[3] = test system: S. aureus ATCC25923; experiment: Antimicrobial activity, microtiter dilution MIC; type: cell-based, Staphylococcus aureus; conditions: G+; MH medium, 5 × 10^5 CFU/mL, 37 °C, 24 h, triplicate
Method: (§1) The antimicrobial activity of the peptides was determined by the standard microtiter dilution method and indicated as MIC (minimal inhibitory concentration) as described previously. Briefly, bacteria were cultured in Mueller–Hinton (MH) medium overnight at 37 °C, diluted to a final inoculum of 5 × 10^5 colony-forming units (CFU)/mL with MH and loaded into 96-well microtiter plates (90 μL/well) with serial dilution of peptides (10 μL/well), with a further incubation at 37 °C for 24 h. MIC was expressed as the lowest peptide concentration that inhibited the growth of bacteria. The antimicrobial assays were repeated in triplicate.

[4] = test system: S. epidermidis ATCC12228; experiment: Antimicrobial activity, microtiter dilution MIC; type: cell-based, Staphylococcus epidermidis; conditions: G+; MH medium, 5 × 10^5 CFU/mL, 37 °C, 24 h, triplicate
Method: as §1

[5] = test system: P. aeruginosa ATCC27853; experiment: Antimicrobial activity, microtiter dilution MIC; type: cell-based, Pseudomonas aeruginosa; conditions: G−; MH medium, 5 × 10^5 CFU/mL, 37 °C, 24 h, triplicate
Method: as §1

[6] = test system: E. coli ATCC25922; experiment: Antimicrobial activity, microtiter dilution MIC; type: cell-based, Escherichia coli; conditions: G−; MH medium, 5 × 10^5 CFU/mL, 37 °C, 24 h, triplicate
Method: as §1

[7] = test system: human red blood (hRBC) cells; experiment: Hemolytic activity assay; type: cell-based; conditions: 2% human RBC in PBS, 37 °C, 2 h, absorbance 578 nm, triplicate
Method: The […] of the peptides was measured by a hemolytic activity assay as described previously. Briefly, healthy human RBCs were collected using an anticoagulation tube with EDTAK2 and centrifuged at 1000 rpm for 5 min. The erythrocytes were washed three times, then diluted to a concentration of 2% in phosphate-buffered saline (PBS). The peptides were serially diluted in PBS and 70 μL of the peptide solutions and 2% RBC suspension were added simultaneously to each well of a 96-well plate (round bottom) for a further incubation at 37 °C for 2 h. Then, the plates were centrifuged for 10 min at 3000 rpm and the supernatant (90 μL) was transferred to a 96-well plate (flat bottom). The absorbance of the supernatant was measured on a microplate reader at 578 nm. Erythrocytes in PBS and distilled water were used as the negative (0%) and positive (100%) controls, respectively. The hemolytic activity was calculated as the percentage of experimental group over positive control (100%), after subtraction of negative control (0%). The hemolytic assays were repeated in triplicate.

[8] = test system: BxPC-3; experiment: MTT cell viability assay; type: cell-based, human; conditions: BxPC-3, MTT, 24 h; mean ± SEM of three independent determinations
Method: (§2) HeLa, MIA PaCa-2, HPAC, and Bxpc-3 cells were maintained in Dulbecco’s modified Eagle medium) with 10% fetal bovine serum, penicillin (100 U/mL), and streptomycin ([…]) in a humid atmosphere at 37 °C with 5% CO2. The effect of the peptides on the survival of HeLa, MIA PaCa-2, HPAC, and Bxpc-3 cells was determined by 3-(4,5-dimethyl-2-thiazolyl)-2,5-diphenyl-2H-tetrazolium bromide (MTT) assay, as described in a previous study. Briefly, cells were seeded in 96-well plates at a density of 5000 per well. After overnight incubation, cells were incubated, in the absence, or presence of various concentrations of peptides for 24 h. Then, the formazan crystals formed by MTT were dissolved with dimethyl sulfoxide (DMSO) and the absorbance was determined at 492 nm with a microplate reader (GF-M3000; Gaomi Caihong Analytical Instruments Co., Shandong, China). The results were expressed as IC50 values, representing the concentration at which cell viability was reduced by 50%. The cytotoxicity assays were repeated in triplicate.

[9] = test system: HPAC; experiment: MTT cell viability assay; type: cell-based, human; conditions: 24 h, mean ± SEM of three independent determinations
Method: as §2

[10] = test system: HeLa; experiment: MTT cell viability assay; type: cell-based, human; conditions: 24 h, mean ± SEM of three independent determinations
Method: as §2

[11] = test system: MIA PaCa-2; experiment: MTT cell viability assay; type: cell-based, human; conditions: MIA PaCa-2, MTT, 24 h; mean ± SEM of three independent determinations
Method: as §2

Structure (SMILES) | tR (RP-HPLC retention time), relative hydrophobicity [1] [min] | [θ]222, benign [2] [degree·cm^2·dmol^−1] | [θ]222, 50% TFE [2] | α-Helix (%), 50% TFE (relative helicity) [2] [%] | α-Helix (%), benign [2] [%] | MIC [3] [µM] | MIC [4] [µM] | MIC [5] [µM] | MIC [6] [µM] | MHC (minimal hemolytic concentration) [7] [µM] | IC50 [8] [µM] | IC50 [9] [µM] | IC50 [10] [µM] | IC50 [11] [µM]
CC[C@H](C)[C@H](NC(=O)[C@H](C)NC(=O)[C@H](CCCCN)NC(=O)[C@H](CC(C)C)NC(=O)[C@H](C)NC(=O)[C@@H](NC(=O)[C@H](Cc1c[nH]cn1)NC(=O)[C@H](CC(C)C)NC(=O)[C@@H](NC(=O)[C@@H](NC(=O)[C@H](CCCCN)NC(=O)[C@H](CCCCN)NC(=O)[C@@H](C)NC(=O)[C@H](CO)NC(=O)[C@H](CCCCN)NC(=O)[C@H](Cc1ccccc1)NC(=O)[C@@H](NC(=O)[C@H](CCCCN)NC(=O)[C@H](CC(C)C)NC(=O)[C@H](Cc1ccccc1)NC(=O)[C@H](CO)NC(=O)[C@H](CCCCN)NC(=O)[C@H](Cc1c[nH]c2ccccc12)NC(=O)[C@H](CCCCN)NC(C)=O)[C@@H](C)O)[C@@H](C)O)C(C)C)[C@@H](C)O)C(=O)N[C@@H](CO)C(=O)N[C@@H](CO)C(N)=O [Peptide A12D] | 41.46 | −4130.9 | −35,785.1 degree·cm^2·dmol^−1 | 70.83 | 8.2 | 64 (≈ 191 µg/mL) | 16 (≈ 47.9 µg/mL) | 16 (≈ 47.9 µg/mL) | 32 (≈ 95.7 µg/mL) | 125 | 45.1 ± 1 | 15.5 ± 1.7 | 28.8 ± 0.8 | 29.9 ± 4.8
CC[C@H](C)[C@H](NC(=O)[C@H](C)NC(=O)[C@H](CCCCN)NC(=O)[C@H](CC(C)C)NC(=O)[C@H](C)NC(=O)[C@@H](NC(=O)[C@H](Cc1c[nH]cn1)NC(=O)[C@H](CC(C)C)NC(=O)[C@@H](NC(=O)[C@@H](NC(=O)[C@@H](CCCCN)NC(=O)[C@H](CCCCN)NC(=O)[C@H](C)NC(=O)[C@@H](CO)NC(=O)[C@H](CCCCN)NC(=O)[C@H](Cc1ccccc1)NC(=O)[C@@H](NC(=O)[C@H](CCCCN)NC(=O)[C@H](CC(C)C)NC(=O)[C@H](Cc1ccccc1)NC(=O)[C@H](CO)NC(=O)[C@H](CCCCN)NC(=O)[C@H](Cc1c[nH]c2ccccc12)NC(=O)[C@H](CCCCN)NC(C)=O)[C@@H](C)O)[C@@H](C)O)C(C)C)[C@@H](C)O)C(=O)N[C@@H](CO)C(=O)N[C@@H](CO)C(N)=O [S11D/K14D] | 40.77 | −3524.85 | −25,931.3 degree·cm^2·dmol^−1 | 51.33 | 7.0 | 64 (≈ 191 µg/mL) | 16 (≈ 47.9 µg/mL) | 32 (≈ 95.7 µg/mL) | 64 (≈ 191 µg/mL) | 125 | 22.4 ± 2.3 | 25.5 ± 0.5 | 30.6 ± 0.5 | 41.3 ± 2.6
CC[C@H](C)[C@H](NC(=O)[C@H](C)NC(=O)[C@H](CCCCN)NC(=O)[C@H](CC(C)C)NC(=O)[C@H](C)NC(=O)[C@@H](NC(=O)[C@H](Cc1c[nH]cn1)NC(=O)[C@H](CC(C)C)NC(=O)[C@@H](NC(=O)[C@@H](NC(=O)[C@H](CCCCN)NC(=O)[C@H](CCCCN)NC(=O)[C@@H](C)NC(=O)[C@H](CO)NC(=O)[C@H](CCCCN)NC(=O)[C@@H](Cc1ccccc1)NC(=O)[C@@H](NC(=O)[C@H](CCCCN)NC(=O)[C@H](CC(C)C)NC(=O)[C@H](Cc1ccccc1)NC(=O)[C@H](CO)NC(=O)[C@H](CCCCN)NC(=O)[C@H](Cc1c[nH]c2ccccc12)NC(=O)[C@H](CCCCN)NC(C)=O)[C@@H](C)O)[C@@H](C)O)C(C)C)[C@@H](C)O)C(=O)N[C@@H](CO)C(=O)N[C@@H](CO)C(N)=O [F9D/A12D] | 40.04 | −2319.89 | −19,328.6 degree·cm^2·dmol^−1 | 38.26 | 4.6 | 125 (≈ 374 µg/mL) | 64 (≈ 191 µg/mL) | 32 (≈ 95.7 µg/mL) | 125 (≈ 374 µg/mL) | 250 | 125 ± 3.7 | 42.4 ± 3 | 59.8 ± 0.5 | 38.8 ± 2.9
CC[C@H](C)[C@H](NC(=O)[C@H](C)NC(=O)[C@H](CCCCN)NC(=O)[C@H](CC(C)C)NC(=O)[C@H](C)NC(=O)[C@@H](NC(=O)[C@H](Cc1c[nH]cn1)NC(=O)[C@H](CC(C)C)NC(=O)[C@@H](NC(=O)[C@H](NC(=O)[C@@H](CCCCN)NC(=O)[C@H](CCCCN)NC(=O)[C@H](C)NC(=O)[C@H](CO)NC(=O)[C@H](CCCCN)NC(=O)[C@H](Cc1ccccc1)NC(=O)[C@@H](NC(=O)[C@H](CCCCN)NC(=O)[C@H](CC(C)C)NC(=O)[C@H](Cc1ccccc1)NC(=O)[C@H](CO)NC(=O)[C@H](CCCCN)NC(=O)[C@H](Cc1c[nH]c2ccccc12)NC(=O)[C@H](CCCCN)NC(C)=O)[C@@H](C)O)[C@H](C)O)C(C)C)[C@@H](C)O)C(=O)N[C@@H](CO)C(=O)N[C@@H](CO)C(N)=O [K14D/T15D] | 40.41 | −1862.4 | −28,551.5 degree·cm^2·dmol^−1 | 56.51 | 3.7 | 64 (≈ 191 µg/mL) | 16 (≈ 47.9 µg/mL) | 32 (≈ 95.7 µg/mL) | 64 (≈ 191 µg/mL) | 250 | 24.1 ± 5.5 | 22.5 ± 0.5 | 31.6 ± 2.1 | 47.1 ± 5.3
